Source: patent publication US4465676A, “16α Halogen substituted 3,17β-dihydroxy steroidal estrogens” (priority 1980, dated 1984)

How the values were obtained:
[1] = test system: antisera against bovine serum albumin complexes with E2-17-hemisuccinate, E2-6-carboxymethyloxime and E2-3-carboxymethyl ether; assay: Radioimmunoassay with antisteroid antisera; format: binding, rabbits; conditions: three antisera, various dilutions
Description: Antisteroid antisera were produced in rabbits immunized with steroid-bovineserum albumin conjugates.
Varying amounts of E2 dissolved in methanol were added to test tubes and evaporated to dryness. The residues were dissolved in 100 μl of antiserum that had been diluted in 0.1M phosphate, pH 7.0/0.015M sodium azide/0.15M NaCl/0.1% gelatin (PBS buffer). […] Upon completion of the incubation, 100 μl of 0.5% gelatin in PBS buffer was added, followed by 1 ml of PBS buffer containing 2.5 mg of dextran-coated charcoal. The mixture was agitated in a vortex mixer and, after 10 minutes at 4° C., it was centrifuged at 5000×g for 10 minutes at 4° C. Aliquots (0.9 ml) were assayed for radioactivity.
The data also indicate that very sensitive radioimmunoassays could be developed with all three antisera.

[2] = test system: rat uterine cytosol (8S and 4S forms); assay: Glycerol gradient sedimentation of labelled rat uterine cytosol; format: binding; conditions: glycerol gradients, with and without 0.4M KCl; DES 7×10^-7 M
Description: The analysis was performed with glycerol rather than the usual sucrose because a more pronounced 8S peak was obtained in the glycerol gradients with both ^3 H- and ^125 I-labeled estradiol. Rat uterine cytosol was prepared as described in Example 4. […] Separate tubes also contained 0.4M KCl. At the end of the incubation, free steroid was removed by adding the incubation mixture to a tube containing a 5-mg pellet of dextran-coated charcoal. After shaking for 5 to 10 minutes at 0° C., the charcoal was removed by centrifugation. […] Fractions of four drops were collected from the bottom of the tube. Control tubes containing cytosol mixed with ^14 C-labeled bovine serum albumin (BSA) as a marker were also analyzed. The sedimintation pattern is illustrated in FIG. 2. The low-salt 8S form (FIG. 2, Curve A) is totally transformed into the 4S form by 0.4M KCl (FIG. 2, Curve B).

SMILES: C[C@]12CC[C@@H]3c4ccc(O)cc4CC[C@H]3[C@@H]1C[C@@H]([125I])[C@@H]2O [^125 I-E2, 16α-[^125 I]iodoestra-1,3,5(10)-triene-3,17β-diol]
- binding of tracer to antisera [1]: bound to all three antisera
- displacement by DES of radioactivity bound to the 8S and 4S forms [2]: almost completely displaced by DES
